Assay results published in paper PMC9817100, “Preclinical profiles of SKB264, a novel anti-TROP2 antibody conjugated to topoisomerase inhibitor, demonstrated promising antitumor efficacy compared to IMMU-132” (Frontiers in Oncology, 2022).
Read-outs that look alike come from different tables or passages of the source.

Legend:
HCC1806 xenograft [1] = conditions: for TGI: HCC1806 xenograft (Figure 7D)
Description: Female BALB/c nude mice (Charles River, Beijing, China) were inoculated with 2×10^6 HCC1806 cells in the right front flank. To evaluate in vivo efficacy of ADC, when the average tumor size reached about 120 mm^3, mice were randomized into 7 groups (n = 6 mice/group). The mice were treated with SKB264 or IMMU-132 at doses of 1, 3, and 10 mg/kg twice a week for six times via i.v. injection. To evaluate the PK-PD of ADC, when the average tumor size reached approximately 270 mm^3, mice were randomized into three groups (n = 5/time point). The mice received a single i.v. injection of control hIgG1, SKB264, or IMMU-132 (3 mg/kg), respectively. Blood samples (from five mice) were collected at 1 h, 4 h, 8 h, 24 h, 48 h, 96 h, 192 h, or 336 h post-dosing to detect the concentration of payload at each time point. The rate of TGI (n = 5 mice, measured at endpoint, i.e., 336 h) was determined to evaluate the antitumor efficacy of ADC. Body weight changes and mortality were also recorded to evaluate the tolerability of the testing items.

[2] = in vitro stability in human plasma (payload release); type: in vitro ADME; conditions: 50 μg/ml, 37°C, 48-h incubation
Human TROP2 protein [3] = target: T1, Human TROP2 protein (Homo sapiens, UniProt P09758); assay: SPR dynamic affinity to human TROP2; type: binding; conditions: read-out: K d (KD) to recombinant human TROP2
T1 sequence (P09758 27-323): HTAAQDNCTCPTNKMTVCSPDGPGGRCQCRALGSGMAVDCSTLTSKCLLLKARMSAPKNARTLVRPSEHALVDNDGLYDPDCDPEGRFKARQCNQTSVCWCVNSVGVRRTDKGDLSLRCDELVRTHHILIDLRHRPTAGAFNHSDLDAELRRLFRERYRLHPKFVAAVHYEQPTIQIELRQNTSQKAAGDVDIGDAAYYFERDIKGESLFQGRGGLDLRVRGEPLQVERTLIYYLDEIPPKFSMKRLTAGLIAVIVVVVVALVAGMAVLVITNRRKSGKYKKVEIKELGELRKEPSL
Description: Surface plasmon resonance (SPR) was an alternative method to evaluate dynamic affinity, in which human TROP2 protein was captured with goat anti-human IgG Ab immobilized onto a CM5 sensor chip (Biacore Inc., Raleigh, NC). Serial titrations of SKB264 or IMMU-132 ranging from 0.0823 to 2.22 nM and running buffer were individually injected over the surface, which was captured human TROP2 for an association phase of 120 s, followed by a 600-s dissociation time. Kinetic parameters were calculated using the BIA evaluation software with the average values of two datasets collected on separate days. Association (K a) and dissociation (K d) rate constant values were calculated by fitting analysis assuming a Langmuir binding model ([16]) and a stoichiometry of (1:1) to determine K D (equilibrium dissociation constant) values.

[4] = in vitro stability in monkey plasma (payload release); type: in vitro ADME, cynomolgus monkeys; conditions: cynomolgus monkey plasma, 50 μg/ml, 37°C, 48-h incubation
[5] = design: method as in PMID 25944802; conditions: tumor-bearing mice model; previous studies; cited from earlier work
[6] = design: method as in PMID 25494821; conditions: cited from earlier work
HCC1806 xenograft [7] = assay: PK-PD study, single dose, HCC1806 xenograft; type: in vivo, BALB/c nude mice
Description: Phoenix WinNonlin 8.1 was used to calculate the PK parameters in the non-compartment model, including t 1/2, T max, C max, AUC0-t, and AUC0-∞. […] The half maximal effective concentration (EC50) and half maximal inhibitory concentration (IC50) were calculated using a nonlinear regression model with sigmoidal fitting. The in vitro antitumor activities of drugs were evaluated by a two-tailed paired t-test.

[8] = test system: triple-negative breast cancer; design: method as in PMID 28291390, PMID 25944802; conditions: drug-resistant triple-negative breast cancer (TNBC) patients; cited from earlier work
Human TROP2 protein [9] = target: T1, Human TROP2 protein; assay: ELISA binding to human TROP2 protein; design: purchased Sino Biological Inc, Wayne, PA
Description: (§1) An enzyme-linked immunosorbent assay (ELISA) was used to evaluate the binding and dynamics affinity. Human TROP2 protein (1 μg/ml) (Sino Biological Inc, Wayne, PA) was coated on a 96-well plate overnight at 4°C. The plate was then blocked by Super block reagent (ScyTek Inc. Logan UT) at room temperature for 1 h. Diluted SKB264, SKB264 mAb, or isotype control (human IgG1 antibody) was added for incubation at 37°C for 1 h. After washing, the diluted (1:10,000) goat anti-human IgG Fc-horseradish peroxidase (HRP) (Abcam, Waltham, MA) was added for further incubation for 45 min at 37°C. Finally, TMB solution was added for absorbance measurement at 450 nm using a SpectraMax Plus384 Microplate reader (Molecular Devices, USA).

[10] = test system: TROP2-positive cells HCC1806; assay: cell-level binding to HCC1806 by FACS; design: species or system human; conditions: read-out: Antibody EC50 determination on HCC1806
Description: (§2) To examine whether the anti-TROP2 mAb plays a targeting role via specifically recognizing the highly expressed TROP2 on the surface of tumor cells, the following experiments were conducted ([17]).
(§3) Figure 2 In vitro activities of SKB264. (A) Binding to human TROP2 estimated by ELISA (duplicates, mean ± SEM). (B) SKB264 binding to HCC1806 and NCI-N87 estimated by FACS. (C) Internalization of SKB264 or SKB264 mAb in HCC1806 and NCI-N87 cells. (D) In vitro cell growth inhibitory activity (triplicates, mean ± SEM) in HCC1806, NCI-N87, BxPC-3, Calu-3, NCI-H23 (TROP2+), and NCI-H23 (parental) cells.

NCI-N87 cells = assay: endocytosis (internalization) experiment in NCI-N87; type: cell-based, human
Description: as §2, §3

HCC1806 cells = assay: endocytosis (internalization) experiment in HCC1806; type: cell-based, human
Description: as §2, §3

[11] = test system: TROP2-positive cells NCI-N87; assay: cell-level binding to NCI-N87 by FACS; design: species or system human; conditions: read-out: Antibody EC50 determination on NCI-N87
Description: as §2, §3

monkey TROP2 = assay: ELISA binding to monkey TROP2
Description: as §1
(§4) Firstly, the affinities of SKB264 and SKB264 mAb to TROP2 of different species were evaluated by ELISA. […] Therefore, we performed the pharmacokinetic experiments in cynomolgus monkeys.

mouse TROP2 protein = target: T2, mouse TROP2 protein (Mus musculus, UniProt Q8BGV3); assay: ELISA binding to mouse TROP2
T2 sequence (Q8BGV3 25-317): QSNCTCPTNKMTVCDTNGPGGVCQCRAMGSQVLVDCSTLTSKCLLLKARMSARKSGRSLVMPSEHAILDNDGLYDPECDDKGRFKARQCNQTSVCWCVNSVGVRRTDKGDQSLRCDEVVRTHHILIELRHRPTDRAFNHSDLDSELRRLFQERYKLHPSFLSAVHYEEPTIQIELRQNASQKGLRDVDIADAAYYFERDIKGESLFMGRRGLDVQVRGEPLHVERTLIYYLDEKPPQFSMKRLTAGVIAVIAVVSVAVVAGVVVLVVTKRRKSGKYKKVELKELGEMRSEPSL
Description: as §1, §4

rat TROP2 protein = assay: ELISA binding to rat TROP2
Description: as §1, §4

DNA topoisomerase I = target: T3, DNA topoisomerase I (Homo sapiens, UniProt P11387); assay: topoisomerase I-mediated DNA relaxation assay (cell-free); type: biochemical; conditions: read-out: DNA topoisomerase I inhibition (IC50)
T3 sequence (P11387 1-765): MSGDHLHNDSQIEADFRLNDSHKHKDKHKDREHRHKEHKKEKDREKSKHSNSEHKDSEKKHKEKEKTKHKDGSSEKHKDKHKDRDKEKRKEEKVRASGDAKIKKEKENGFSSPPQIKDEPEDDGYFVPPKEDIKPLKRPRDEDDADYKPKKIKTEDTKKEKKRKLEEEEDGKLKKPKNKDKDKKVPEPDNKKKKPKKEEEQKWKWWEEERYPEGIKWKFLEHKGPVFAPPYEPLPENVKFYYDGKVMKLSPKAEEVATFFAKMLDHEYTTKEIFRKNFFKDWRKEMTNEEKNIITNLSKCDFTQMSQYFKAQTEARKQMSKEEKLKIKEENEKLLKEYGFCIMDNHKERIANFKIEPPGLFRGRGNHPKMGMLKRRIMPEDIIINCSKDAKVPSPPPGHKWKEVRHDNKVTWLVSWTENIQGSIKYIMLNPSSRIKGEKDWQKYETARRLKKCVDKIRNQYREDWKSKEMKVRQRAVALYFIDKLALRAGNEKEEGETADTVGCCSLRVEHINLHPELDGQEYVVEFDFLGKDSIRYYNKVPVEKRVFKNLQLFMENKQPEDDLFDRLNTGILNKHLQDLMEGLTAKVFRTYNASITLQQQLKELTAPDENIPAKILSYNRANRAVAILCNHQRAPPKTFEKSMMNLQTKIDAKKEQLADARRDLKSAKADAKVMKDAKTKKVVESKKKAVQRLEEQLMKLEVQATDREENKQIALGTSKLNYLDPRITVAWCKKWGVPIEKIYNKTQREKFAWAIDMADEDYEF
From the text: SKB264 is a TROP2-targeting ADC, which consists of a recombinant humanized anti-TROP2 antibody and a topoisomerase I inhibitor derived from Belotecan (KL610023), integrated together via a sulfonyl pyrimidine-CL2A-carbonate linker. The payload is conjugated with the antibody through irreversible nucleophilic aromatic substitution by tris (2-carboxyethyl) phosphine hydrochloride (TCEP HCl), a reducing agent that can reduce the interchain disulfide bounds. The drug-to-antibody ratio (DAR) of SKB264 was approximately 7.4, which was determined by the reversed-phase chromatography (RPC), and might be the theoretical maximum drug loading number for conventional interchain cysteine conjugation ( Figure 1B ). SKB264 was designed to release payload KL610023 after internalization by TROP2-expressing tumor cells. The inhibitory effect of KL610023 on topoisomerase I was almost similar to that of SN-38, as measured by a topoisomerase I-mediated DNA relaxation assay ( Figure 1C ).
Figure 1 Structure and characterization of SKB264. […] (B) The distribution of the conjugated drug determined by the reverse-phase chromatography analysis (L-0: Unconjugated light chain, L-1: Light chain conjugated with one payload, H-0: Unconjugated heavy chain, H-1: Heavy chain conjugated with one payload, H-2: Heavy chain conjugated with two payloads, H-3: Heavy chain conjugated with three payloads). […]

HCC1806 (TROP2+) = assay: cytotoxic assay (CellTiter-Glo, 72 h) HCC1806; type: cell-based, human; conditions: HCC1806, payload comparison, Figure 7C, duplicates; read-out: IC50 inhibition of proliferation of HCC1806 cells
Description: Tumor cells were seeded on 96-well plates at the following concentrations: HCC1806 (3,000 cells per well), NCI-N87 (5,000 cells per well), BxPC-3 (2,000 cells per well), Calu-3 (8,000 cells per well), NCI-H23 (TROP2+, 3,000 cells per well), and NCI-H23 (parental, 3,000 cells per well). After overnight incubation, the diluted testing items were added respectively. After 72 h, cell viability was evaluated using a CellTiter-Glo Luminescent Cell Viability Assay (Promega Corp. Madison, WI), following the manufacturer’s instruction.

[12] = plasma, payload after single i.v. 3 mg/kg SKB264 (KL610023) or IMMU-132 (SN-38), HCC1806 tumor-bearing mice, mean, n = 5
[13] = tumor, payload after single i.v. 3 mg/kg SKB264 (KL610023) or IMMU-132 (SN-38), HCC1806 tumor-bearing mice, mean, n = 5

sacituzumab govitecan [IMMU-132]
TGI (HCC1806 xenograft [1]; 1 mg/kg i.v. twice a week for six times): 48.12%
TGI (HCC1806 xenograft [1]; 3 mg/kg i.v. twice a week for six times): 70.64%
TGI (HCC1806 xenograft [1]; 10 mg/kg i.v. twice a week for six times): 153.27%
body weight of the experimental mice (HCC1806 xenograft [1]; HCC1806 xenograft, all treatment groups 1, 3, 10 mg/kg): no significant change
release rate of the payload [2]: ~100%
Kd (Human TROP2 protein [3]): 0.293 nM
release rate of the payload [4]: ~100%
half-life [5]: 14 h
half-life in serum [6]: ~ 1 day
TGI (HCC1806 xenograft [7]; HCC1806 xenograft, single i.v. 3 mg/kg, after 13 days (336 h)): 21.05%
objective response rate (ORR) [8]: 33%

SKB264 mAb: humanized anti-TROP2 mAb with the same amino acid sequence as the antibody of IMMU-132
EC50 determination on Human TROP2 (Human TROP2 protein [9]): 2.731 ng/mL
EC50 [10]: 16.1 nM
percentage of endocytosis (NCI-N87 cells): increased over time
percentage of endocytosis (HCC1806 cells): increased over time
EC50 [11]: 8.09 nM
EC50 of the affinity with monkey TROP2 (monkey TROP2): 3.399 ng/mL
EC50 binding to mouse TROP2 protein (mouse TROP2 protein): > 5,000 ng/ml
EC50 binding to rat TROP2 protein (rat TROP2 protein): > 5,000 ng/ml

CCc1c2c(nc3ccc(O)cc13)-c1cc3c(c(=O)n1C2)COC(=O)[C@]3(O)CC [SN-38]
IC50 (DNA topoisomerase I): 1100 nM
AUC0-∞ of payload (HCC1806 xenograft [7]; [12]): 22.17 ng·h/mL
AUClast of payload (HCC1806 xenograft [7]; [12]): 19.26 ng·h/mL
C max of payload (HCC1806 xenograft [7]; [12]): 1.32 ng/mL
t 1/2 of payload (HCC1806 xenograft [7]; [12]): 15.5 h
AUC0-∞ of payload (HCC1806 xenograft [7]; [13]): 448 ng·h/g
AUClast of payload (HCC1806 xenograft [7]; [13]): 410 ng·h/g
C max of payload (HCC1806 xenograft [7]; [13]): 4.5 ng/g
T max of payload (HCC1806 xenograft [7]; [13]): 24 h
t 1/2 of payload (HCC1806 xenograft [7]; [13]): 57.4 h
IC50 (HCC1806 (TROP2+)): 2.61 nM
